Assays:
[1] = system: the cell lines investigated
[2] = system: MCF-7 cells (breast adenocarcinoma); type: cell-based, human; conditions: read-out: IC50 MCF-7
[3] = system: DU-145 cells (metastatic prostate carcinoma); type: cell-based, human; conditions: read-out: IC50 DU-145
[4] = system: MIA PaCa 2 cells (human pancreatic carcinoma); type: cell-based; conditions: read-out: IC50 MIA PaCa 2
[5] = system: Hep G2 cells (human hepatocellular carcinoma); type: cell-based; conditions: read-out: IC50 Hep G2
[6] = system: PANC-1 cells (human pancreatic carcinoma); type: cell-based; conditions: read-out: IC50 PANC-1
[7] = system: HFF-1 cells (normal human foreskin fibroblast); type: cell-based; conditions: read-out: IC50 HFF-1
[8] = system: DU-145 cells; type: cell-based, human
[9] = system: microtubule network in MCF-7 cells; type: cell-based, human

OCCN(CCO)Cc1ccccn1 [Complex L1, bis(2-hydroxyethyl)pyridylmethylamine]
cytotoxicity of the ligands (in words) [1]: did not exhibit any cytotoxicity

O=C1[O][Pt]2([NH][C@@H]3CCCC[C@H]3[NH]2)[O]C1=O [Oxaliplatin]
IC50 [2]: 0.6 ± 0.1 µM
IC50 [3]: 4.5 ± 0.3 µM
IC50 [4]: 5.7 ± 0.2 µM
IC50 [5]: 9.8 ± 0.3 µM
IC50 [6]: 3.1 ± 0.2 µM
IC50 [7]: 7 ± 0.6 µM
increase in cell killing efficiency in presence of verapamil [8]: 8 times

COc1cc2c(c(OC)c1OC)-c1ccc(OC)c(=O)cc1[C@@H](NC(C)=O)CC2 [colchicine, Colchicine]
organization of microtubule network (positive control) [9]: disruption of microtubule network

Source: PMC7174022 (Dalton transactions (Cambridge, England : 2003), 2020)
